The results in this text go back to article doi:10.1101/2024.08.19.608619, “Discovery of potent SARS-CoV-2 nsp3 macrodomain inhibitors uncovers lack of translation to cellular antiviral response” (bioRxiv, 2024).

Like-named read-outs stand apart in the source and are kept apart here.

In experiment [1] the target is T1, SARS-CoV-2 nsp3-mac1 (Severe acute respiratory syndrome coronavirus 2, UniProt P0DTD1). The experiment is described as follows: biochemical. On the set-up: SARS-CoV-2 nsp3 macrodomain TR-FRET single point, per cent inhibition, n=2.
In experiment [2] the target is T1, SARS-CoV-2 nsp3-mac1. The experiment is described as follows: biochemical. It is filed as biochemical. Conditions: SARS-CoV-2 nsp3 macrodomain TR-FRET single point. (TR-FRET usually uses a lanthanide donor and a delayed reading to cut background.)
Setting [3] is: read-out: perc_inhibition_mean, batch_name=ASAP-0000420-001.
Setting [4] is: read-out: perc_inhibition_mean, batch_name=ASAP-0000421-001.
[5] abbreviates: read-out: perc_inhibition_mean, batch_name=ASAP-0000422-001.
Setting [6] is: read-out: perc_inhibition_mean, batch_name=ASAP-0000423-001.
The mark [7] stands for this setting: read-out: perc_inhibition_mean, batch_name=ASAP-0000424-001.
Setting [8] is: read-out: perc_inhibition_mean, batch_name=ASAP-0000425-001.
[9] abbreviates: read-out: perc_inhibition_mean, batch_name=ASAP-0000426-001.
Where [10] appears, read: read-out: perc_inhibition_mean, batch_name=ASAP-0000427-001.
Setting [11] is: read-out: perc_inhibition_mean, batch_name=ASAP-0000428-001.
Setting [12] is: read-out: perc_inhibition_mean, batch_name=ASAP-0000429-001.
Where [13] appears, read: read-out: perc_inhibition_mean, batch_name=ASAP-0000430-001.
[14] abbreviates: read-out: perc_inhibition_mean, batch_name=ASAP-0000448-001.
Setting [15] is: read-out: perc_inhibition_mean, batch_name=ASAP-0000449-001.
Where [16] appears, read: read-out: perc_inhibition_mean, batch_name=ASAP-0000451-001.

For `O=C(c1cc(O)ncn1)N1CCC(c2ccn3ncc(C(=O)N4CCCCC4)c3c2)CC1` [ASAP-0000420], in experiment [1] (setting [3]), the inhibition at 49.75 µM came to 19.1% and the inhibition at 99.5 µM turned out to be 30.9%. Also, the perc_inhibition_mean in experiment [2] (concentration 49.75 uM) stood at 19.125%. Further, the perc_inhibition_mean in experiment [2] (concentration 99.5 uM) was 30.869%.

As to `O=C(c1c[nH]nn1)N1CCC(c2ccn3ncc(C(=O)N4CCCCC4)c3c2)CC1` [ASAP-0000421], in experiment [1] (setting [4]), the inhibition at 49.75 µM amounted to 14.7% and the inhibition at 99.5 µM turned out to be 25.7%. Also, the perc_inhibition_mean in experiment [2] (concentration 49.75 uM) is 14.65%. Also, the perc_inhibition_mean in experiment [2] (concentration 99.5 uM) was found to be 25.652%.

Consider `O=C(c1ccc(O)nc1)N1CCC(c2ccn3ncc(C(=O)N4CCCCC4)c3c2)CC1` [ASAP-0000422], for which, in experiment [1] (setting [5]), the inhibition at 49.75 µM was determined as 11% and the inhibition at 99.5 µM turned out to be 26.5%. Besides, the perc_inhibition_mean in experiment [2] (concentration 49.75 uM) is on record as 10.998%. For the same molecule, in experiment [2] (concentration 99.5 uM), the perc_inhibition_mean was 26.485%.

As for `Cc1c[nH]nc1C(=O)N1CCC(c2ccn3ncc(C(=O)N4CCCCC4)c3c2)CC1` [ASAP-0000423], in experiment [1] (setting [6]), the inhibition at 49.75 µM amounted to 8.47% and the inhibition at 99.5 µM came out at 27.4%. The perc_inhibition_mean in experiment [2] (concentration 49.75 uM) is given as 8.474%. Moreover, the perc_inhibition_mean in experiment [2] (concentration 99.5 uM) came out at 27.38%.

For the molecule `CN(C(=O)c1cnn2ccc(C3CCN(C(=O)c4ccccc4)CC3)cc12)c1ccccc1O` [ASAP-0000424], in experiment [1] (setting [7]), the inhibition at 49.75 µM came to 10% and the inhibition at 99.5 µM was 15.9%. For the same molecule, the perc_inhibition_mean in experiment [2] (concentration 49.75 uM) is reported as 10.02%. Further, the perc_inhibition_mean in experiment [2] (concentration 99.5 uM) is recorded as 15.878%.

With `COC[C@@H](Nc1ncnc2nc[nH]c12)c1ccc(C)o1` [ASAP-0000425], the inhibition at 49.75 µM in experiment [1] (setting [8]) was -4.64%. The inhibition at 99.5 µM in experiment [1] (setting [8]) amounted to 3.94%. Besides, the perc_inhibition_mean in experiment [2] (concentration 49.75 uM) was -4.638%; in experiment [2] (concentration 99.5 uM) it was 3.942%.

As to `CC(C)c1nc([C@@H](C)Nc2ncnc3nc[nH]c23)cs1` [ASAP-0000426], the inhibition at 49.75 µM in experiment [1] (setting [9]) was 2.65%. In addition, in experiment [1] (setting [9]), the inhibition at 99.5 µM was found to be 3.07%. For the same molecule, the perc_inhibition_mean in experiment [2] (concentration 49.75 uM) worked out at 2.645%; in experiment [2] (concentration 99.5 uM), 3.067%.

Turning to `CN(c1ncnc2[nH]ncc12)[C@@H](CCO)c1ccccc1` [ASAP-0000427], in experiment [1] (setting [10]), the inhibition at 49.75 µM came out at 8.86% and the inhibition at 99.5 µM was found to be 5.14%. Moreover, the perc_inhibition_mean in experiment [2] (concentration 49.75 uM) is on record as 8.856%. For the same molecule, in experiment [2] (concentration 99.5 uM), the perc_inhibition_mean was 5.14%.

On to `CC(C)[C@H]1CNC(=O)CN1c1ncnc2[nH]ccc12` [ASAP-0000428], for which, in experiment [1] (setting [11]), the inhibition at 49.75 µM was 6.84% and the inhibition at 99.5 µM came to 17.6%. The perc_inhibition_mean in experiment [2] (concentration 49.75 uM) worked out at 6.836%. Moreover, the perc_inhibition_mean in experiment [2] (concentration 99.5 uM) stood at 17.564%.

For `Cc1nc(NC(=O)Cn2cnc3ccccc3c2=O)c2cc[nH]c2n1` [ASAP-0000429], in experiment [1] (setting [12]), the inhibition at 49.75 µM was -4.07% and the inhibition at 99.5 µM is -4.89%. The perc_inhibition_mean in experiment [2] (concentration 49.75 uM) is -4.067%. Also, in experiment [2] (concentration 99.5 uM), the perc_inhibition_mean was -4.886%.

With `O=C(c1nnn[nH]1)N1CCC(c2ccn3ncc(C(=O)N4CCCCC4)c3c2)CC1` [ASAP-0000430], in experiment [1] (setting [13]), the inhibition at 49.75 µM was 55.2% and the inhibition at 99.5 µM was found to be 69%. In experiment [2] (concentration 49.75 uM), the perc_inhibition_mean was found to be 55.152%. The perc_inhibition_mean in experiment [2] (concentration 99.5 uM) is given as 69.012%.

`Cn1cc([C@H]2CSCCN2c2ncnc3[nH]ccc23)cn1` [ASAP-0000448]: in experiment [1] (setting [14]), the inhibition at 49.75 µM is -6.49% and the inhibition at 99.5 µM is -3.46%. Moreover, the perc_inhibition_mean in experiment [2] (concentration 49.75 uM) is recorded as -6.49%. Further, the perc_inhibition_mean in experiment [2] (concentration 99.5 uM) is listed as -3.463%.

On to `Cn1nc(C(=O)N2CCC(c3ccn4ncc(C(=O)N5CCCCC5)c4c3)CC2)cc1C(=O)O` [ASAP-0000449], for which, in experiment [1] (setting [15]), the inhibition at 49.75 µM turned out to be 42.7% and the inhibition at 99.5 µM was 59.7%. Further, the perc_inhibition_mean in experiment [2] (concentration 49.75 uM) is reported as 42.655%. Further, in experiment [2] (concentration 99.5 uM), the perc_inhibition_mean is reported as 59.743%.

Regarding `O=C(O)c1ccc(C(=O)N2CCC(c3ccn4ncc(C(=O)N5CCCCC5)c4c3)CC2)o1` [ASAP-0000451], in experiment [1] (setting [16]), the inhibition at 49.75 µM was found to be 40.5% and the inhibition at 99.5 µM was 58.1%. Besides, the perc_inhibition_mean in experiment [2] (concentration 49.75 uM) amounted to 40.495%. In addition, the perc_inhibition_mean in experiment [2] (concentration 99.5 uM) is on record as 58.121%.
